The numbers were not newly measured in article PMC4626739 (Toxins, 2015), which cites them from elsewhere.

As for Kalata B1, the “resistance to chaotropic agents and proteases” value was “extremely resistant”; the thermal stability result is “highly thermostable”.
